# Reference: ChEMBL document CHEMBL1201861, “Genomics of Drug Sensitity in Cancer screening data, Wellcome Trust Sanger Institute”
# Assays:
# Experiment in all cases: cells
# Type in all cases: functional, cell-based, Homo sapiens
# 8505C = test system: 8505C
# Description: SANGER: Inhibition of human 8505C cell growth in a cell viability assay.
# CWR22R = test system: CWR22R;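 further: growth inhibition of 22Rv1 cells, read out with a cell viability assay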
# Description: SANGER: Inhibition of human 22RV1 cell growth in a cell viability assay.
# COR-L105 = test system: COR-L105;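 further: cell growth inhibition determined with a viability assay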
# Description: SANGER: Inhibition of human COR-L105 cell growth in a cell viability assay.
# FaDu = test system: FaDu;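 further: cell viability readout of growth inhibition in FaDu cells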
# Description: SANGER: Inhibition of human FADU cell growth in a cell viability assay.
# H-EMC-SS = test system: H-EMC-SS
# Description: SANGER: Inhibition of human H-EMC-SS cell growth in a cell viability assay.
# ECC10 = test system: ECC10;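 further: growth inhibition of ECC10 cells, read out by a cell viability assay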
# Description: SANGER: Inhibition of human ECC10 cell growth in a cell viability assay.
# SW900 = test system: SW900;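 further: IC50 is the concentration that inhibits SW900 cell growth, measured by a cell viability assay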
# Description: SANGER: Inhibition of human SW900 cell growth in a cell viability assay.
# TI-73 = test system: TI-73;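 further: cell viability assay measuring how much compounds suppress growth of the cultured cell line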
# Description: SANGER: Inhibition of human TI-73 cell growth in a cell viability assay.
# 769-P = test system: 769-P
# Description: SANGER: Inhibition of human 769-P cell growth in a cell viability assay.
# NCI-H630 = test system: NCI-H630;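 further: growth inhibition of NCI-H630 cells, read out with a cell viability assay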
# Description: SANGER: Inhibition of human NCI-H630 cell growth in a cell viability assay.
# HSC-2 = test system: HSC-2;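 further: growth inhibition of human HSC-2 cells, read out by a cell viability assay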
# Description: SANGER: Inhibition of human HSC-2 cell growth in a cell viability assay.
# NCI-H2291 = test system: NCI-H2291
# Description: SANGER: Inhibition of human NCI-H2291 cell growth in a cell viability assay.
# MEL-JUSO = test system: MEL-JUSO;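 further: growth inhibition of human MEL-JUSO cells, read out with a cell viability assay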
# Description: SANGER: Inhibition of human MEL-JUSO cell growth in a cell viability assay.
# HCT-116 = test system: HCT-116
# Description: SANGER: Inhibition of human HCT-116 cell growth in a cell viability assay.
# P12-Ichikawa = test system: P12-Ichikawa
# BALL-1 = test system: BALL-1;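 further: growth inhibition of BALL-1 cells, read out with a cell viability assay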
# Description: SANGER: Inhibition of human BALL-1 cell growth in a cell viability assay.
# NBsusSR = test system: NBsusSR;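 further: growth inhibition of the human cell line, read out with a cell viability assay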
# Description: SANGER: Inhibition of human NBsusSR cell growth in a cell viability assay.
# BFTC-909 = test system: BFTC-909
# Description: SANGER: Inhibition of human BFTC-909 cell growth in a cell viability assay.
# T47D = test system: T47D;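 further: growth inhibition of human T47D cells, measured with a cell viability assay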
# Description: SANGER: Inhibition of human T47D cell growth in a cell viability assay.
# NCI-H1975 = test system: NCI-H1975
# Description: SANGER: Inhibition of human NCI-H1975 cell growth in a cell viability assay.
# SK-N-AS = test system: SK-N-AS;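 further: growth inhibition of human SK-N-AS cells, measured with a cell viability assay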
# Description: SANGER: Inhibition of human SK-N-AS cell growth in a cell viability assay.
# SN12C = test system: SN12C;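 further: growth inhibition of human SN12C cells, measured by a cell viability assay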
# Description: SANGER: Inhibition of human SN12C cell growth in a cell viability assay.
# HMV-2 cell line = test system: HMV-2 cell line;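 further: growth inhibition of HMV-II cells, read out with a cell viability assay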
# Description: SANGER: Inhibition of human HMV-II cell growth in a cell viability assay.
# MDA-MB-157 = test system: MDA-MB-157
# Description: SANGER: Inhibition of human MDA-MB-157 cell growth in a cell viability assay.
# LU-135 = test system: LU-135
# Description: SANGER: Inhibition of human LU-135 cell growth in a cell viability assay.
# SW1990 = test system: SW1990;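 further: cell growth inhibition determined with a viability assay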
# Description: SANGER: Inhibition of human SW1990 cell growth in a cell viability assay.
compound,measurement,setting,value
CN(C)C(=N)NC(=N)N [METFORMIN],IC50,"8505C; Homo sapiens, 8505C",15400 µM
same,IC50,"CWR22R; Homo sapiens, 22Rv1",18000 µM
same,IC50,"COR-L105; Homo sapiens, COR-L105",> 20000 µM
same,IC50,"FaDu; Homo sapiens, FaDu",11200 µM
same,IC50,"H-EMC-SS; Homo sapiens, H-EMC-SS",> 20000 µM
same,IC50,"ECC10; Homo sapiens, ECC10",2280 µM
same,IC50,"SW900; Homo sapiens, SW900",19300 µM
same,IC50,"TI-73; Homo sapiens, TI-73",13600 µM
same,IC50,"769-P; Homo sapiens, 769-P",6920 µM
same,IC50,"NCI-H630; Homo sapiens, NCI-H630",> 20000 µM
same,IC50,"HSC-2; Homo sapiens, HSC-2",12100 µM
same,IC50,"NCI-H2291; Homo sapiens, NCI-H2291",> 20000 µM
same,IC50,"MEL-JUSO; Homo sapiens, MEL-JUSO",16000 µM
same,IC50,"HCT-116; Homo sapiens, HCT-116",> 20000 µM
same,IC50,"P12-Ichikawa; Homo sapiens, P12-Ichikawa",12400 µM
same,IC50,"BALL-1; Homo sapiens, BALL-1",> 20000 µM
same,IC50,"NBsusSR; Homo sapiens, NBsusSR",9190 µM
same,IC50,"BFTC-909; Homo sapiens, BFTC-909",> 20000 µM
same,IC50,"T47D; Homo sapiens, T47D",19900 µM
same,IC50,"NCI-H1975; Homo sapiens, NCI-H1975",11700 µM
Cc1cn(-c2cc(NC(=O)c3ccc(C)c(Nc4nccc(-c5cccnc5)n4)c3)cc(C(F)(F)F)c2)cn1 [NILOTINIB],IC50,"8505C; Homo sapiens, 8505C",> 2 µM
same,IC50,"CWR22R; Homo sapiens, 22Rv1",> 2 µM
same,IC50,"COR-L105; Homo sapiens, COR-L105",> 2 µM
same,IC50,"FaDu; Homo sapiens, FaDu",> 2 µM
same,IC50,"H-EMC-SS; Homo sapiens, H-EMC-SS",> 2 µM
same,IC50,"SK-N-AS; Homo sapiens, SK-N-AS",> 2 µM
same,IC50,"ECC10; Homo sapiens, ECC10",> 2 µM
same,IC50,"SW900; Homo sapiens, SW900",> 2 µM
same,IC50,"TI-73; Homo sapiens, TI-73",> 2 µM
same,IC50,"SN12C; Homo sapiens, SN12C",> 2 µM
same,IC50,"769-P; Homo sapiens, 769-P",> 2 µM
same,IC50,"NCI-H630; Homo sapiens, NCI-H630",> 2 µM
same,IC50,"HSC-2; Homo sapiens, HSC-2",> 2 µM
same,IC50,"NCI-H2291; Homo sapiens, NCI-H2291",> 2 µM
same,IC50,"MEL-JUSO; Homo sapiens, MEL-JUSO",> 2 µM
same,IC50,"HMV-2 cell line; Homo sapiens, HMV-2",0.749 µM
same,IC50,"MDA-MB-157; Homo sapiens, MDA-MB-157",> 2 µM
same,IC50,"HCT-116; Homo sapiens, HCT-116",> 2 µM
same,IC50,"P12-Ichikawa; Homo sapiens, P12-Ichikawa",> 2 µM
same,IC50,"BALL-1; Homo sapiens, BALL-1",> 2 µM
same,IC50,"NBsusSR; Homo sapiens, NBsusSR",> 2 µM
same,IC50,"BFTC-909; Homo sapiens, BFTC-909",> 2 µM
same,IC50,"T47D; Homo sapiens, T47D",> 2 µM
same,IC50,"LU-135; Homo sapiens, LU-135",> 2 µM
same,IC50,"NCI-H1975; Homo sapiens, NCI-H1975",> 2 µM
same,IC50,"SW1990; Homo sapiens, SW1990",> 2 µM
CO[C@H]1C[C@@H]2CC[C@@H](C)[C@@](O)(O2)C(=O)C(=O)N2CCCC[C@H]2C(=O)O[C@H]([C@H](C)C[C@@H]2CC[C@@H](OC(=O)C(C)(CO)CO)[C@H](OC)C2)CC(=O)[C@H](C)/C=C(\C)[C@@H](O)[C@@H](OC)C(=O)[C@H](C)C[C@H](C)/C=C/C=C/C=C/1C [TEMSIROLIMUS],IC50,"8505C; Homo sapiens, 8505C",> 0.2 µM
same,IC50,"CWR22R; Homo sapiens, 22Rv1",> 0.2 µM
same,IC50,"COR-L105; Homo sapiens, COR-L105",0.0545 µM
same,IC50,"FaDu; Homo sapiens, FaDu",> 0.2 µM
same,IC50,"H-EMC-SS; Homo sapiens, H-EMC-SS",> 0.2 µM
same,IC50,"SK-N-AS; Homo sapiens, SK-N-AS",0.127 µM
same,IC50,"ECC10; Homo sapiens, ECC10",> 0.2 µM
same,IC50,"SW900; Homo sapiens, SW900",> 0.2 µM
same,IC50,"TI-73; Homo sapiens, TI-73",> 0.2 µM
same,IC50,"SN12C; Homo sapiens, SN12C",0.183 µM
same,IC50,"769-P; Homo sapiens, 769-P",> 0.2 µM
same,IC50,"NCI-H630; Homo sapiens, NCI-H630",> 0.2 µM
same,IC50,"HSC-2; Homo sapiens, HSC-2",0.2 µM
same,IC50,"NCI-H2291; Homo sapiens, NCI-H2291",> 0.2 µM
same,IC50,"MEL-JUSO; Homo sapiens, MEL-JUSO",0.0666 µM
same,IC50,"HMV-2 cell line; Homo sapiens, HMV-2",> 0.2 µM
same,IC50,"MDA-MB-157; Homo sapiens, MDA-MB-157",> 0.2 µM
same,IC50,"HCT-116; Homo sapiens, HCT-116",> 0.2 µM
same,IC50,"P12-Ichikawa; Homo sapiens, P12-Ichikawa",0.013 µM
same,IC50,"BALL-1; Homo sapiens, BALL-1",> 0.2 µM
same,IC50,"NBsusSR; Homo sapiens, NBsusSR",0.0213 µM
same,IC50,"BFTC-909; Homo sapiens, BFTC-909",> 0.2 µM
same,IC50,"T47D; Homo sapiens, T47D",0.107 µM
same,IC50,"LU-135; Homo sapiens, LU-135",> 0.2 µM
same,IC50,"NCI-H1975; Homo sapiens, NCI-H1975",> 0.2 µM
same,IC50,"SW1990; Homo sapiens, SW1990",> 0.2 µM
CS(=O)(=O)c1ccc(C(=O)Nc2ccc(Cl)c(-c3ccccn3)c2)c(Cl)c1 [VISMODEGIB],IC50,"8505C; Homo sapiens, 8505C",> 10 µM
same,IC50,"CWR22R; Homo sapiens, 22Rv1",> 10 µM
same,IC50,"COR-L105; Homo sapiens, COR-L105",> 10 µM
same,IC50,"FaDu; Homo sapiens, FaDu",> 10 µM
same,IC50,"H-EMC-SS; Homo sapiens, H-EMC-SS",> 10 µM
same,IC50,"SK-N-AS; Homo sapiens, SK-N-AS",> 10 µM
same,IC50,"SW900; Homo sapiens, SW900",> 10 µM
same,IC50,"TI-73; Homo sapiens, TI-73",> 10 µM
same,IC50,"SN12C; Homo sapiens, SN12C",> 10 µM
same,IC50,"769-P; Homo sapiens, 769-P",> 10 µM
same,IC50,"NCI-H630; Homo sapiens, NCI-H630",> 10 µM
same,IC50,"HSC-2; Homo sapiens, HSC-2",> 10 µM
same,IC50,"NCI-H2291; Homo sapiens, NCI-H2291",> 10 µM
same,IC50,"MEL-JUSO; Homo sapiens, MEL-JUSO",> 10 µM
same,IC50,"HMV-2 cell line; Homo sapiens, HMV-2",> 10 µM
same,IC50,"MDA-MB-157; Homo sapiens, MDA-MB-157",> 10 µM
same,IC50,"HCT-116; Homo sapiens, HCT-116",> 10 µM
same,IC50,"P12-Ichikawa; Homo sapiens, P12-Ichikawa",> 10 µM
same,IC50,"BALL-1; Homo sapiens, BALL-1",> 10 µM
same,IC50,"NBsusSR; Homo sapiens, NBsusSR",> 10 µM
same,IC50,"BFTC-909; Homo sapiens, BFTC-909",> 10 µM
same,IC50,"T47D; Homo sapiens, T47D",> 10 µM
same,IC50,"LU-135; Homo sapiens, LU-135",> 10 µM
same,IC50,"NCI-H1975; Homo sapiens, NCI-H1975",> 10 µM
same,IC50,"SW1990; Homo sapiens, SW1990",> 10 µM
CISPLATIN,IC50,8505C; 8505c,34.6 µM
same,IC50,CWR22R; cwr22r,25.3 µM
same,IC50,COR-L105; cor-l105,22.7 µM
same,IC50,FaDu; fadu,8.92 µM
same,IC50,H-EMC-SS; h-emc-ss,21.2 µM
same,IC50,SK-N-AS; sk-n-as,38 µM
same,IC50,ECC10; ecc10,258 µM
same,IC50,SW900; sw900,28.9 µM
same,IC50,TI-73; ti-73,8.53 µM
same,IC50,SN12C; sn12c,17.1 µM
same,IC50,769-P; 769-p,16.2 µM
same,IC50,NCI-H630; nci-h630,514 µM
same,IC50,HSC-2; hsc-2,129 µM
same,IC50,NCI-H2291; nci-h2291,458 µM
same,IC50,MEL-JUSO; mel-juso,18.8 µM
same,IC50,HMV-2 cell line; hmv-2,11.2 µM
same,IC50,MDA-MB-157; mda-mb-157,290 µM
same,IC50,HCT-116; hct-116,8.68 µM
same,IC50,P12-Ichikawa; p12-ichikawa,2.04 µM
same,IC50,BALL-1; ball-1,75.9 µM
same,IC50,NBsusSR; nbsussr,1.33 µM
same,IC50,BFTC-909; bftc-909,14.9 µM
same,IC50,T47D; t47d,129 µM
same,IC50,LU-135; lu-135,33.8 µM
same,IC50,NCI-H1975; nci-h1975,409 µM
same,IC50,SW1990; sw1990,9.71 µM
